The numbers were not newly measured in PMC12697872, “Rethinking the AI Paradigm for Solubility Prediction of Drug‑Like Compounds with Dual‐Perspective Modeling and Experimental Validation” (Advanced Science, 2025), which cites them from elsewhere.

The conditions of this data set: cited from earlier work; for ex_logS: experimental aqueous solubility as logS; for Experimental solubility (descriptive) / Experimental solubility: discarded ambiguous entries of DrugBank database, ref DrugBank database (version 5.1.12) 24.
Where [1] appears, read: sheet "DrugBank", ref DrugBank database.
Setting [2] is: sheet "DrugBank" of Supplement 2, ref DrugBank.

Where two headings read alike, the source gives them in different places.

In the case of `CCCCC(C)(O)C/C=C/[C@H]1[C@H](O)CC(=O)[C@@H]1CCCCCCC(=O)OC` (mixture of isomers) [Misoprostol], under setting [1], the ex_logS is -2.379. As to `c1cnc2c(c1)ccc1cccnc12` [1,10-Phenanthroline], under setting [1], the ex_logS was -1.826. Regarding `O=C(O)c1ccc(O)cc1O` [2,4-Dihydroxybenzoic Acid], the ex_logS under setting [2] is -1.426. As for `Cc1ccnc2c1ccc1c(C)ccnc12` [4,7-Dimethyl-[1,10]Phenanthroline], the ex_logS under setting [1] is given as -3.968.

In the case of `Cc1ncc(COP(=O)(O)O)c(C=O)c1O` [54-47-7], the “Experimental solubility (descriptive)” value is on record as “Appreciable”. Turning to `Oc1ccc2c(c1)[C@@]13CCCC[C@@]1(O)[C@@H](C2)N(CC1CCC1)CC3` [42408-82-2], the “Experimental solubility (descriptive)” value is “Moderate”.

Take `CCC(NC(C)C)C(O)c1ccc(O)c(O)c1` (stereo not drawn) [79490-84-9]: the “Experimental solubility (descriptive)” value was “Appreciable”. As for `O=C(O)c1ccc2nc(-c3cc(Cl)cc(Cl)c3)oc2c1` [594839-88-0], the Experimental solubility is above 50 mg/mL.

On to `CN(CCN1CCC(OC(=O)Nc2ccccc2-c2ccccc2)CC1)C(=O)c1ccc(CN2CCC(C(N)=O)CC2)cc1` [864750-70-9], for which the Experimental solubility is below 1 mg/ml mg/mL. `O=C(O)[C@H](O)c1ccccc1` [(R)-Mandelic acid]: the ex_logS under setting [1] is recorded as -0.1409. Regarding `O=C(O)[C@@H](O)c1ccccc1` [(S)-Mandelic acid], under setting [1], the ex_logS is listed as 0.07541. `Nc1ncnc2c1ncn2[C@@H]1O[C@H](COP(=O)(O)OP(=O)(O)OP(=O)(O)O)[C@@H](O)[C@H]1O` [ATP]: the ex_logS under setting [1] is recorded as 0.2948. Take `CCCC(=O)Nc1ccc(OCC(O)CNC(C)C)c(C(C)=O)c1` (stereo not drawn) [Acebutolol]: the ex_logS under setting [1] is listed as -3.114.

As to `CC(=O)Oc1ccccc1C(=O)O` [Acetylsalicylic acid], the ex_logS under setting [2] is -1.6122. As for `COc1cc(C)c(/C=C/C(C)=C/C=C/C(C)=C/C(=O)O)c(C)c1C` [Acitretin], the ex_logS under setting [1] is given as -6.651. Regarding `Nc1nc2c(ncn2COCCO)c(=O)[nH]1` [Acyclovir], the ex_logS under setting [1] is recorded as -2.203. As for `Nc1ncnc2[nH]cnc12` [Adenine], the ex_logS under setting [1] is reported as -2.1179. Take `CC1=C(/C=C/C(C)=C\C=C\C(C)=C\C(=O)O)C(C)(C)CCC1` [Alitretinoin]: under setting [1], the ex_logS is -5.6996.

`C=CCc1ccccc1OCC(O)CNC(C)C` (stereo not drawn) [Alprenolol]: under setting [2], the ex_logS is given as -2.659. As to `CCCCC[C@H](O)/C=C/[C@H]1[C@H](O)CC(=O)[C@@H]1CCCCCCC(=O)O` [Alprostadil], under setting [1], the ex_logS is recorded as -4.123. `CC1(C)S[C@@H]2[C@H](/N=C/N3CCCCCC3)C(=O)N2[C@H]1C(=O)O` [Amdinocillin]: under setting [1], the ex_logS is given as -4.5. Consider `NCCCNCCSP(=O)(O)O` [Amifostine], for which the ex_logS under setting [1] is on record as 0.6691.

As to `NCC[C@H](O)C(=O)N[C@@H]1C[C@H](N)[C@@H](O[C@H]2O[C@H](CN)[C@@H](O)[C@H](O)[C@H]2O)[C@H](O)[C@H]1O[C@H]1O[C@H](CO)[C@@H](O)[C@H](N)[C@H]1O` [Amikacin], the ex_logS under setting [2] was -1.069. As for `Cn1c(=O)c2[nH]cnc2n(C)c1=O` [Aminophylline], the ex_logS under setting [1] is reported as -0.3227. Regarding `Nc1ccc(C(=O)O)c(O)c1` [Aminosalicylic acid], the ex_logS under setting [1] was -1.957. Regarding `CCC1(CCC(C)C)C(=O)NC(=O)NC1=O` [Amobarbital], the ex_logS under setting [2] was -2.574. Consider `CC(C)(C#N)c1cc(Cn2cncn2)cc(C(C)(C)C#N)c1` [Anastrozole], for which, under setting [1], the ex_logS is listed as -2.743. For the compound `C[C@]12CCC(=O)C=C1CC[C@@H]1[C@@H]2CC[C@]2(C)C(=O)CC[C@@H]12` [Androstenedione], the ex_logS under setting [2] is -3.695. Take `COc1ccc(C2C(=O)c3ccccc3C2=O)cc1` [Anisindione]: the ex_logS under setting [2] is given as -3.5. On to `COc1ccc(-n2nc(C(N)=O)c3c2C(=O)N(c2ccc(N4CCCCC4=O)cc2)CC3)cc1` [Apixaban], for which, under setting [1], the ex_logS is reported as -3.621. On to `NC[C@H](CC(=O)O)c1ccc(Cl)cc1` [Arbaclofen], for which the ex_logS under setting [1] was -2.01. For `NC(=O)C[C@H](N)C(=O)O` [Asparagine], under setting [1], the ex_logS is -0.6526. With `COc1ccc(CCN2CCC(Nc3nc4ccccc4n3Cc3ccc(F)cc3)CC2)cc1` [Astemizole], the ex_logS under setting [2] is -3.026. As for `NCC(CC(=O)O)c1ccc(Cl)cc1` (stereo not drawn) [Baclofen], under setting [1], the ex_logS was -1.672.

`COC(=O)OCOc1c2n(ccc1=O)N([C@@H]1c3ccccc3SCc3c1ccc(F)c3F)[C@@H]1COCCN1C2=O` [Baloxavir marboxil]: the ex_logS under setting [1] is recorded as -4.581.

In the case of `O=C(/C=C/c1cccc(S(=O)(=O)Nc2ccccc2)c1)NO` [Belinostat], the ex_logS under setting [1] is listed as -3.357. Turning to `CCOC(=O)[C@H](CCc1ccccc1)N[C@H]1CCc2ccccc2N(CC(=O)O)C1=O` [Benazepril], the ex_logS under setting [1] is -1.349. On to `NS(=O)(=O)c1cc2c(cc1C(F)(F)F)NC(Cc1ccccc1)NS2(=O)=O` (stereo not drawn) [Bendroflumethiazide], for which, under setting [1], the ex_logS is reported as -3.591. Take `NS(=O)(=O)c1cc2c(cc1Cl)N=C(CSCc1ccccc1)NS2(=O)=O` [Benzthiazide]: under setting [2], the ex_logS is reported as -4.686. For `OCc1ccccc1` [Benzyl alcohol], under setting [1], the ex_logS is -0.5155. Take `CC1=C(/C=C/C(C)=C/C=C/C(C)=C/C=C/C=C(C)/C=C/C=C(C)/C=C/C2=C(C)CCCC2(C)C)C(C)(C)CCC1` [Beta carotene]: the ex_logS under setting [1] was -5.952. As for `CCC(=O)O[C@]1(c2ccccc2)CCN(C)C[C@H]1CC` [Betameprodine], the ex_logS under setting [1] was -5.285. As for `C[C@H]1C[C@H]2[C@@H]3CCC4=CC(=O)C=C[C@]4(C)[C@@]3(F)[C@@H](O)C[C@]2(C)[C@@]1(O)C(=O)CO` [Betamethasone], under setting [2], the ex_logS is -3.771.

On to `CC(O)(CS(=O)(=O)c1ccc(F)cc1)C(=O)Nc1ccc(C#N)c(C(F)(F)F)c1` (stereo not drawn) [Bicalutamide], for which, under setting [2], the ex_logS is on record as -4.935.

As to `O=C(O)CCCC[C@@H]1SC[C@@H]2NC(=O)N[C@@H]21` [Biotin], under setting [1], the ex_logS was -3.046. For the compound `Oc1c(Cl)cc(Cl)cc1Sc1cc(Cl)cc(Cl)c1O` [Bithionol], the ex_logS under setting [1] is -4.949. In the case of `CCOc1ccc(Nc2ccc(/C(=C3C=C/C(=[N+](/CC)Cc4cccc(S(=O)(=O)[O-])c4)C=C/3C)c3ccc(N(CC)Cc4cccc(S(=O)(=O)O)c4)cc3C)cc2)cc1` [Brilliant blue G], the ex_logS under setting [1] is listed as -2.931. For the compound `CCCCN1CCCCC1C(=O)Nc1c(C)cccc1C` (stereo not drawn) [Bupivacaine], under setting [1], the ex_logS is reported as -3.22. In the case of `C=CCC1(CC(C)C)C(=O)NC(=O)NC1=O` [Butalbital], under setting [1], the ex_logS is -2.1203. For the compound `CCCCOC(=O)c1ccc(N)cc1` [Butamben], the ex_logS under setting [1] is -3.14.

In the case of `CCCCC1(CC)C(=O)NC(=O)NC1=O` [Butobarbital], under setting [2], the ex_logS was -1.638. Turning to `CC12CCC(CC1=O)C2(C)C` (stereo not drawn) [Camphor], under setting [1], the ex_logS is recorded as -1.978. In the case of `CC1(C)S[C@@H]2[C@H](NC(=O)C(C(=O)O)c3ccccc3)C(=O)N2[C@H]1C(=O)O` (stereo partly drawn) [Carbenicillin], the ex_logS under setting [2] is -2.924.

With `C[C@@](Cc1ccc(O)c(O)c1)(NN)C(=O)O` [Carbidopa], under setting [1], the ex_logS is reported as -4.775. Turning to `N[C@@H](CSCC(=O)O)C(=O)O` [Carbocisteine], the ex_logS under setting [1] is reported as -2.0492. In the case of `C[C@H](N)[C@@H](O)c1ccccc1` [Cathine], the ex_logS under setting [1] is on record as -0.8785. For `N[C@@H](C(=O)N[C@@H]1C(=O)N2C(C(=O)O)=C(Cl)CS[C@H]12)c1ccccc1` [Cefaclor], under setting [1], the ex_logS was -1.566.

As for `CC(=O)OCC1=C(C(=O)O)N2C(=O)[C@@H](NC(=O)Cc3cccs3)[C@H]2SC1` [Cefalotin], the ex_logS under setting [1] was -3.4.

For the compound `CC(=O)OCC1=C(C(=O)O)N2C(=O)[C@@H](NC(=O)CSc3ccncc3)[C@H]2SC1` [Cefapirin], the ex_logS under setting [1] was -2.614. Take `C=CC1=C(C(=O)O)N2C(=O)[C@@H](NC(=O)/C(=N\O)c3csc(N)n3)[C@H]2SC1` [Cefdinir]: the ex_logS under setting [1] was -1.65. For the compound `CO/N=C(\C(=O)N[C@@H]1C(=O)N2C(C(=O)[O-])=C(C[N+]3(C)CCCC3)CS[C@H]12)c1csc(N)n1` [Cefepime], the ex_logS under setting [1] was -4.4513. As to `C=CC1=C(C(=O)O)N2C(=O)[C@@H](NC(=O)/C(=N\OCC(=O)O)c3csc(N)n3)[C@H]2SC1` [Cefixime], the ex_logS under setting [2] is recorded as -3.9153. Consider `CO[C@@]1(NC(=O)CSCC#N)C(=O)N2C(C(=O)O)=C(CSc3nnnn3C)CS[C@@H]21` [Cefmetazole], for which the ex_logS under setting [2] was -3.699. `CC=CC1=C(C(=O)O)N2C(=O)[C@@H](NC(=O)[C@H](N)c3ccc(O)cc3)[C@H]2SC1` [Cefprozil]: the ex_logS under setting [2] was -3.85. For `CC1=C(C(=O)O)N2C(=O)[C@@H](NC(=O)[C@H](N)C3=CCC=CC3)[C@H]2SC1` [Cefradine], under setting [1], the ex_logS is reported as -1.215. Regarding `NC(=O)O[C@@H](Cn1ncnn1)c1ccccc1Cl` [Cenobamate], under setting [1], the ex_logS is reported as -2.197. `CC(=O)OCC1=C(C(=O)O)N2C(=O)[C@@H](NC(=O)[C@H](N)c3ccccc3)[C@H]2SC1` [Cephaloglycin]: the ex_logS under setting [1] is -3.42. `OC(O)C(Cl)(Cl)Cl` [Chloral hydrate]: under setting [2], the ex_logS is reported as 0.6807. Turning to `CN1C(=O)CCS(=O)(=O)C1c1ccc(Cl)cc1` (stereo not drawn) [Chlormezanone], under setting [1], the ex_logS is recorded as -2.039.

Turning to `CCN(CC)CCOC(=O)c1ccc(N)cc1Cl` [Chloroprocaine], under setting [1], the ex_logS is -2.61.

On to `CN(C)CCCN1c2ccccc2Sc2ccc(Cl)cc21` [Chlorpromazine], for which the ex_logS under setting [1] is -5.097. On to `Nc1ccn(C[C@@H](CO)OCP(=O)(O)O)c(=O)n1` [Cidofovir], for which the ex_logS under setting [1] is given as -0.2154. Consider `CCOC(=O)[C@H](CCc1ccccc1)N[C@H]1CCCN2CCC[C@@H](C(=O)O)N2C1=O` [Cilazapril], for which the ex_logS under setting [2] was -1.922. Regarding `CN/C(=N/CCSCc1nc[nH]c1C)NC#N` [Cimetidine], the ex_logS under setting [2] is -1.43. Consider `COc1cc(N)c(Cl)cc1C(=O)NC1CCN(CCCOc2ccc(F)cc2)CC1OC` (stereo not drawn) [Cisapride], for which the ex_logS under setting [1] was -5.235.
